Results as given in patent US20230000869A1, “NOVEL ALK2 INHIBITORS AND METHODS FOR INHIBITING BMP SIGNALING” (The Brigham and Women's Hospital, Inc., priority 2017, published 2023).

What was measured:
[1] = biological target: T1, ALK2 (Mus musculus, UniProt P37172); assay: Luciferase reporter gene assay for ALK2 activity (C2C12 BRE-Luc SMAD1/5/8 reporter, BMP6 agonist); assay type: cell-based; conditions: BMP6 50 ng/mL
T1 construct: endogenous in cells; host or cells: C2C12-BRE (BRE-Luc reporter line, G418 selection)
T1 sequence (P37172 21-509): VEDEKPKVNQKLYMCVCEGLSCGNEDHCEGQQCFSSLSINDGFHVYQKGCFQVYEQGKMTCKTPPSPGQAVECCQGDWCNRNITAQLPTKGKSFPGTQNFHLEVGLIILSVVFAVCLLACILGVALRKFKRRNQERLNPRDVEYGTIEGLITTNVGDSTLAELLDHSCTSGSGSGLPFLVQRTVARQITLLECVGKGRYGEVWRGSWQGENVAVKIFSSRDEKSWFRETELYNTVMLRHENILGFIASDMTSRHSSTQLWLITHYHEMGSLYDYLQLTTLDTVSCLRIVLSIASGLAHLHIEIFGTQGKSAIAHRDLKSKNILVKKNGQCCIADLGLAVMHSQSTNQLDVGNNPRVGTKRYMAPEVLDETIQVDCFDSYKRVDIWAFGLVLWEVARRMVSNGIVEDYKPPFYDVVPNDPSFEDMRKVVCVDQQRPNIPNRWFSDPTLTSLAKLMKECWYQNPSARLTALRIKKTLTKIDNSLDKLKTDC
Procedure: (§1) All cell lines were cultured in DMEM, supplemented with […] and 1% Pen/Strep. All media reagents were obtained from Gibco. BMP6, BMP9, and TGFβ were obtained from R&D Systems. C2C12-BRE and HEK293T-SBE were kept in selection with 400 ug/mL G418 from Invivogen.
(§2) In this reporter gene cell based ALK2 and TGFβ assay, the C2C12 cell line was employed for the measurement of ALK2 activity, using a BRE-Luc SMAD1/5/8 reporter and BMP6 as the agonist. The HEK293T cell line was employed to measure TGFβ activity, using a SBE-Luc SMAD2/3 reporter and TGFβ as the agonist. Luciferase reporter assays were read using Promega Steady-Glo Luciferase Assay System.
(§3) Cells were plated in 96 well white clear bottom assay plates at 10 k cells/well for C2C12-BRE, 15 k cells/well for HEK293-SBE in DMEM containing 2% FBS 1% P/S. Cells were given a minimum of 4 hours in incubator at 37° C./5% CO2 to adhere prior to further treatment. Compounds were diluted in DMSO to a 10-point dilution curve and added to the plate to reach the following final concentrations: 10000, 3000, 1000, 300, 100, and 30 nM in the HEK293-SBE assay and 1000, 300, 100, 30, 10, 3, 1, 0.3 nM in the C2C12-BRE assay. Negative and positive control wells received 2 μL DMSO as vehicle treatment. Plates were returned to incubator for 45 minutes and then BMP6 and TGFB were added to a final concentration of 50 ng/mL and 5 ng/mL, respectively. Plates were returned to the incubator and left overnight. After a minimum of 18 hours post BMP6/TGFβ addition, the plates were read using Promega Steady-Glo Luciferase Assay System. A 1:1 mixture of prepared steady-glo and phenol free DMEM was prepared, and 50 μL/well was added to the assay plates whose media had been flicked off. Plates were given 10 minutes post steady-glo addition before luminescence was read on a Spectramax M5e microplate reader. Negative control wells were averaged and subtracted from all other wells on the plate. Inhibition was calculated as the percent of signal loss compared to the averaged positive control wells.

[2] = tested on: TGFβ; assay: Luciferase reporter gene assay for TGFβ activity (HEK293T SBE-Luc SMAD2/3 reporter, TGFβ agonist); assay type: cell-based; conditions: Homo sapiens, HEK-293T, TGFβ 5 ng/mL
Procedure: as §1, §2, §3

IC50 [1] | IC50 [2] | Structure (SMILES)
27 nM | 605 nM | [2H]C([2H])([2H])c1ccc2nccc(-c3cnn4cc(N5CCC(N6CCN(C)CC6)CC5)cnc34)c2c1 [Compound 320]
31 nM | 897 nM | Cc1ccc2nccc(-c3cnn4cc(N5CCC(N6CCN(C)CC6)CC5)cnc34)c2c1F [Compound 278]
298 nM | 286 nM | COc1cc2c(-c3cnn4cc(N5CCN(C)CC5)cnc34)ccnc2cc1F [Compound 195]
56 nM | 261 nM | NC(=O)c1cccc2c(-c3cnn4cc(N5CCC(N6CCOCC6)CC5)cnc34)cccc12 [Compound 13]
114 nM | 327 nM | CCN1CCN(C2CCN(c3cnc4c(-c5ccnc6cc(F)c(OC)cc56)cnn4c3)CC2)CC1 [Compound 40]
47 nM | > 2000 nM | COc1cc2c(-c3cnc4cc(N5CC(N6CCN(C)CC6)C5)cnn34)ccnc2cc1F [Compound 335]
46 nM | 505 nM | COc1cc2c(-c3cnn4cc(N5CCC(N6CCN(C)CC6)CC5)ccc34)ccnc2cc1F [Compound 230]
17 nM | 202 nM | CN1CCN(C2CCN(c3cnc4c(-c5ccnc6sccc56)cnn4c3)CC2)CC1 [Compound 250]
13 nM | 327 nM | COc1cc2c(-c3cnn4cc(N5CC(CC#N)(N6CCN(C)CC6)C5)cnc34)ccnc2cc1F [Compound 201]
> 1000 nM | > 3000 nM | CN1CCN(C2CN(c3cnc4c(N5CCN(C(=O)C6CC6)CC5)cnn4c3)C2)CC1 [Compound 339]
16 nM | 291 nM | CN1CCN(C2CCN(c3cnc4c(-c5ccnc6cc(F)c(Cl)cc56)cnn4c3)CC2)CC1 [Compound 240]
334 nM | 118 nM | CN1CCN(C2CCN(c3cnc4c(-c5cnn6ccccc56)cnn4c3)CC2)CC1 [Compound 26]
> 1000 nM | > 3000 nM | COc1cc2c(-c3nnc4cc(N5CCC(N6CCN(C)CC6)CC5)ccn34)ccnc2cc1F [Compound 354]
37 nM | < 10 nM | CN1CCN(C2CCN(c3cnc4c(-c5ccnc6cc(F)c(O)cc56)cnn4c3)CC2)CC1 [Compound 242]
33 nM | 60 nM | Cc1cc(-c2cnn3cc(N4CC(N5CCN(C)CC5)C4)cnc23)c2cc(F)cc(F)c2n1 [Compound 311]

Second part, the compound before the results:

Structure (SMILES) | IC50 [1] | IC50 [2]
Cc1cc2c(-c3cnn4cc(N5CC(N6CCN(C)CC6)C5)cnc34)ccnc2cc1F [Compound 308] | 159 nM | 595 nM
Cc1cc(-c2cnn3cc(N4CCN(CC(C)(C)O)CC4)cnc23)c2ccccc2n1 [Compound 198] | 300 nM | 283 nM
Cc1cc(-c2cnn3cc(N4CC(N5CCN(C)CC5)C4)cnc23)c2ccc(F)c(F)c2n1 [Compound 315] | 23 nM | 30 nM
Cc1cc(-c2cnn3cc(N4CCN(c5ccncc5)CC4)cnc23)c2ccccc2n1 [Compound 27] | 7 nM | 10 nM
Cc1cc(-c2cnn3cc(N4CCC(N5CCN(C)CC5)CC4)cnc23)c2cc(F)cc(F)c2n1 [Compound 276] | 164 nM | 64 nM
COc1cc2c(-c3cnc4cc(N5CCC(N6CCN(C)CC6)CC5)cnn34)ccnc2cc1F [Compound 355] | 146 nM | 791 nM
Cc1cc(-c2cnn3cc(N4CC(N5CCN(C)CC5)C4)cnc23)c2ccc(F)cc2n1 [Compound 310] | 21 nM | 38 nM
COc1cc2c(-c3cnn4cc(N5CCC(N6C[C@H]7C[C@@H]6CN7C)CC5)cnc34)ccnc2cc1F [Compound 55] | 9 nM | 268 nM
COc1cc(F)c2nccc(-c3cnn4cc(N5CCC(N6CCN(C)CC6)CC5)cnc34)c2c1 [Compound 273] | 14 nM | 267 nM
COc1cc2c(-c3cnn4cc(N5CCC(N6CCN(C)CC6)C5)cnc34)ccnc2cc1F (stereo not shown) [Compound 48] | 50 nM | 914 nM
Cc1cc(-c2cnn3cc(N4CCN(C)CC4)cnc23)c2ccccc2n1 [Compound 196] | 935 nM | 126 nM
